US8338465B2, “Cyclic carboxylic acid rhodanine derivatives for the treatment and prevention of tuberculosis” (priority 2006, dated 2012)

target: T1, dihydrolipoamide acyltransferase (DlaT) (Mycobacterium tuberculosis, UniProt P9WIS7); test: DlaT inhibition (Dlat IC50); DTNB peroxidase assay with Lpd, DlaT and AhpD; assay type: biochemical; conditions: Table 1, Compounds A1 to A294; read-out: Dlat IC50 category
T1 sequence (P9WIS7 1-553): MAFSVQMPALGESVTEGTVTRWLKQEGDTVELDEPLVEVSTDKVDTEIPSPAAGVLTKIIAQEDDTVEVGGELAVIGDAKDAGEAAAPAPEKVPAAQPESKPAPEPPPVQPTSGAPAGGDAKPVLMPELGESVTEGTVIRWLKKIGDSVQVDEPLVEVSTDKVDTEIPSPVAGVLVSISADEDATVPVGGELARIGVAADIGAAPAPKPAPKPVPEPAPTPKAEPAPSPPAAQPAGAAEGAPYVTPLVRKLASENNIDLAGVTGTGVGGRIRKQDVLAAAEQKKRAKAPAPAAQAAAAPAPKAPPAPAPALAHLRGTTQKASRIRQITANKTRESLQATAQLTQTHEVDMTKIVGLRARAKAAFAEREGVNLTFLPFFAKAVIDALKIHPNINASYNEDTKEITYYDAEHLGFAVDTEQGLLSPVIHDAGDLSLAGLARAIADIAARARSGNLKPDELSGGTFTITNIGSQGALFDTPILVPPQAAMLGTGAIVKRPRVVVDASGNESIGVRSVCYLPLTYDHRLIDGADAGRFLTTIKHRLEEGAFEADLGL

Row | SMILES | IC50
1 | CC(C)Cc1ccc(-c2ccc(C=C3SC(=S)N(c4ccc(O)c(C(=O)O)c4)C3=O)o2)cc1 [Compound A65] | < 10 µM
2 | O=C(O)c1cc(N2C(=O)C(=Cc3ccc(-c4ccccc4Cl)o3)SC2=S)ccc1Cl [Compound A66] | < 10 µM
3 | O=C(O)c1cc(N2C(=O)C(=Cc3ccc(-c4cccc(C(F)(F)F)c4)o3)SC2=S)ccc1Cl [Compound A67] | < 10 µM
4 | O=C(O)c1cc(N2C(=O)C(=Cc3ccc(-c4ccc(Cl)cc4)o3)SC2=S)ccc1Cl [Compound A68] | < 10 µM
5 | O=C(O)c1cc(N2C(=O)C(=Cc3ccc(-c4ccccc4OC(F)(F)F)o3)SC2=S)ccc1Cl [Compound A69] | < 10 µM
6 | O=C(O)c1cccc(N2C(=O)C(=Cc3ccc(-c4ccccc4OC(F)(F)F)o3)SC2=S)c1 [Compound A70] | < 10 µM
7 | O=C(O)c1ccc(Cl)c(N2C(=O)C(=Cc3ccc(-c4ccccc4Cl)o3)SC2=S)c1 [Compound A71] | < 10 µM
8 | O=C(O)c1ccc(Cl)c(N2C(=O)C(=Cc3ccc(-c4ccc(Cl)cc4)o3)SC2=S)c1 [Compound A72] | < 10 µM
9 | O=C(O)c1ccc(Cl)c(N2C(=O)C(=Cc3ccc(-c4cccc(C(F)(F)F)c4)o3)SC2=S)c1 [Compound A73] | < 10 µM
10 | COc1ccc(C(=O)O)cc1N1C(=O)C(=Cc2ccc(-c3ccccc3Cl)o2)SC1=S [Compound A74] | < 10 µM
11 | NC(=O)c1cccc(N2C(=O)C(=Cc3ccc(-c4ccccc4Cl)o3)SC2=S)c1 [Compound A75] | 11 to 40 µM
12 | NC(=O)c1cccc(N2C(=O)C(=Cc3ccc(-c4cccc(C(F)(F)F)c4)o3)SC2=S)c1 [Compound A76] | 11 to 40 µM
13 | NC(=O)c1cccc(N2C(=O)C(=Cc3ccc(-c4ccc(Cl)cc4)o3)SC2=S)c1 [Compound A77] | 11 to 40 µM
14 | Cc1ccc(C(=O)O)cc1N1C(=O)C(=Cc2ccc(-c3ccccc3Cl)o2)SC1=S [Compound A78] | < 10 µM
15 | Cc1c(C(=O)O)cccc1N1C(=O)C(=Cc2ccc(-c3ccccc3Cl)o2)SC1=S [Compound A79] | < 10 µM
16 | Cc1ccc(C(=O)O)cc1N1C(=O)C(=Cc2ccc(-c3ccc(C(C)(C)C)cc3)o2)SC1=S [Compound A80] | < 10 µM
17 | Cc1c(C(=O)O)cccc1N1C(=O)C(=Cc2ccc(-c3ccc(C(C)(C)C)cc3)o2)SC1=S [Compound A81] | < 10 µM
18 | Cc1ccc(C(=O)O)cc1N1C(=O)C(=Cc2ccc(-c3ccc(C4CCCCC4)cc3)o2)SC1=S [Compound A82] | < 10 µM
19 | Cc1c(C(=O)O)cccc1N1C(=O)C(=Cc2ccc(-c3ccc(C4CCCCC4)cc3)o2)SC1=S [Compound A83] | < 10 µM
20 | O=C(O)c1cccc(N2C(=O)C(=Cc3ccc(-c4ccc(Cc5ccc(Cl)cc5)cc4)o3)SC2=S)c1 [Compound A84] | < 10 µM
21 | COc1ccc(C(=O)O)cc1N1C(=O)C(=Cc2ccc(-c3cccc(C(F)(F)F)c3)o2)SC1=S [Compound A86] | < 10 µM
22 | COc1ccc(C(=O)O)cc1N1C(=O)C(=Cc2ccc(-c3ccc(Cl)cc3)o2)SC1=S [Compound A87] | < 10 µM
23 | O=C(O)c1cc(N2C(=O)C(=Cc3ccc(-c4ccccc4Cl)o3)SC2=S)cc([N+](=O)[O-])c1 [Compound A88] | < 10 µM

Row | SMILES | IC50
24 | O=C(O)c1cc(N2C(=O)C(=Cc3ccc(-c4cccc(C(F)(F)F)c4)o3)SC2=S)cc([N+](=O)[O-])c1 [Compound A89] | 11 to 40 µM
25 | O=C(O)c1cc(N2C(=O)C(=Cc3ccc(-c4ccc(Cl)cc4)o3)SC2=S)cc([N+](=O)[O-])c1 [Compound A90] | < 10 µM
26 | COc1ccc(C(=O)O)cc1N1C(=O)C(=Cc2ccc(-c3ccc(CC(C)C)cc3)o2)SC1=S [Compound A91] | < 10 µM
27 | CC(C)Cc1ccc(-c2ccc(C=C3SC(=S)N(c4cc(C(=O)O)ccc4Cl)C3=O)o2)cc1 [Compound A92] | < 10 µM
28 | COc1ccc(C(=O)O)cc1N1C(=O)C(=Cc2ccc(-c3cccc(C(C)C)c3)o2)SC1=S [Compound A93] | < 10 µM
29 | O=C(O)c1cccc(N2C(=O)C(=Cc3ccc(-c4ccc(C5CCCC5)cc4)o3)SC2=S)c1 [Compound A94] | < 10 µM
30 | CC(C)(c1ccccc1)c1ccc(-c2ccc(C=C3SC(=S)N(c4cccc(C(=O)O)c4)C3=O)o2)cc1 [Compound A95] | < 10 µM
31 | CC(C)(c1ccccc1)c1ccc(-c2ccc(C=C3SC(=S)N(c4cc(C(=O)O)ccc4Cl)C3=O)o2)cc1 [Compound A96] | < 10 µM
32 | COc1ccc(C(=O)O)cc1N1C(=O)C(=Cc2ccc(-c3ccc(C(C)(C)c4ccccc4)cc3)o2)SC1=S [Compound A97] | 11 to 40 µM
33 | Cc1c(C(=O)O)cccc1N1C(=O)C(=Cc2ccc(-c3ccc(C(C)(C)c4ccccc4)cc3)o2)SC1=S [Compound A98] | < 10 µM
34 | O=C(O)c1ccc(F)c(N2C(=O)C(=Cc3ccc(-c4ccccc4Cl)o3)SC2=S)c1 [Compound A99] | < 10 µM
35 | CC(C)(C)c1ccc(-c2ccc(C=C3SC(=S)N(c4cc(C(=O)O)ccc4F)C3=O)o2)cc1 [Compound A100] | < 10 µM
36 | O=C(O)c1ccc(F)c(N2C(=O)C(=Cc3ccc(-c4ccc(C5CCCCC5)cc4)o3)SC2=S)c1 [Compound A101] | < 10 µM
37 | Cc1ccc(C(=O)O)cc1N1C(=O)C(=Cc2ccc(-c3ccc(C(C)(C)c4ccccc4)cc3)o2)SC1=S [Compound A102] | < 10 µM
38 | O=C(O)c1ccc(F)c(N2C(=O)C(=Cc3ccc(-c4cccc(C(F)(F)F)c4)o3)SC2=S)c1 [Compound A103] | < 10 µM
39 | O=C(O)c1ccc(F)c(N2C(=O)C(=Cc3ccc(-c4ccc(Cl)cc4)o3)SC2=S)c1 [Compound A104] | < 10 µM
40 | O=C(O)c1ccc(F)c(N2C(=O)C(=Cc3ccc(-c4ccc(Cl)c(Cl)c4)o3)SC2=S)c1 [Compound A105] | < 10 µM
41 | O=C(O)c1ccc(F)c(N2C(=O)C(=Cc3ccc(-c4c(Cl)cccc4Cl)o3)SC2=S)c1 [Compound A106] | < 10 µM
42 | O=C(O)c1ccc(Cl)c(N2C(=O)C(=Cc3ccc(-c4ccc(Cl)c(Cl)c4)o3)SC2=S)c1 [Compound A107] | < 10 µM
43 | O=C(O)c1cc(N2C(=O)C(=Cc3ccc(-c4ccc(Cl)c(Cl)c4)o3)SC2=S)ccc1Cl [Compound A108] | < 10 µM
44 | O=C(O)c1cc(N2C(=O)C(=Cc3ccc(-c4c(Cl)cccc4Cl)o3)SC2=S)ccc1Cl [Compound A109] | < 10 µM
45 | O=C(O)c1ccc(Cl)c(N2C(=O)C(=Cc3ccc(-c4c(Cl)cccc4Cl)o3)SC2=S)c1 [Compound A110] | < 10 µM
46 | Cc1c(C(=O)O)cccc1N1C(=O)C(=Cc2ccc(-c3ccc(Cl)c(Cl)c3)o2)SC1=S [Compound A111] | < 10 µM

Row | SMILES | IC50
47 | Cc1c(C(=O)O)cccc1N1C(=O)C(=Cc2ccc(-c3c(Cl)cccc3Cl)o2)SC1=S [Compound A112] | < 10 µM
48 | Cc1ccc(C(=O)O)cc1N1C(=O)C(=Cc2ccc(-c3ccc(Cl)c(Cl)c3)o2)SC1=S [Compound A113] | < 10 µM
49 | Cc1ccc(C(=O)O)cc1N1C(=O)C(=Cc2ccc(-c3c(Cl)cccc3Cl)o2)SC1=S [Compound A114] | < 10 µM
50 | O=C(O)c1cccc(N2C(=O)C(=Cc3ccc(-c4ccc(C(=O)O)c(O)c4)o3)SC2=S)c1 [Compound A115] | 11 to 40 µM
51 | CN(C)c1ccc(-c2ccc(C=C3SC(=S)N(c4cccc(C(=O)O)c4)C3=O)o2)cc1 [Compound A116] | 11 to 40 µM
52 | O=C(O)c1cccc(N2C(=O)C(=Cc3ccc(-c4cccc(Cl)c4Cl)o3)SC2=S)c1 [Compound A117] | < 10 µM
53 | O=C(O)CCc1cccc(N2C(=O)C(=Cc3ccc(-c4ccccc4Cl)o3)SC2=S)c1 [Compound A118] | < 10 µM
54 | O=C(O)CCc1cccc(N2C(=O)C(=Cc3ccc(-c4cccc(Cl)c4)o3)SC2=S)c1 [Compound A119] | < 10 µM
55 | O=C(O)CCc1cccc(N2C(=O)C(=Cc3ccc(-c4ccc(Cl)cc4)o3)SC2=S)c1 [Compound A120] | < 10 µM
56 | O=C(O)c1cccc(N2C(=O)C(=Cc3ccc(-c4cc(Cl)cc(Cl)c4)o3)SC2=S)c1 [Compound A121] | 11 to 40 µM
57 | CN(C)Cc1ccc(-c2ccc(C=C3SC(=S)N(c4cccc(C(=O)O)c4)C3=O)o2)cc1 [Compound A122] | 11 to 40 µM
58 | O=C(O)c1cccc(N2C(=O)C(=Cc3ccc(-c4ccc(Br)cc4)o3)SC2=S)c1 [Compound A123] | 11 to 40 µM
59 | O=C(O)c1cccc(N2C(=O)C(=Cc3ccc(-c4ccc(O)cc4Cl)o3)SC2=S)c1 [Compound A124] | < 10 µM
60 | CN(C)c1cccc(-c2ccc(C=C3SC(=S)N(c4cccc(C(=O)O)c4)C3=O)o2)c1 [Compound A125] | < 10 µM
61 | C#Cc1ccc(-c2ccc(C=C3SC(=S)N(c4cccc(C(=O)O)c4)C3=O)o2)cc1 [Compound A126] | 11 to 40 µM
62 | O=C(O)c1cccc(N2C(=O)C(=Cc3ccc(-c4cccc([N+](=O)[O-])c4)o3)SC2=S)c1 [Compound A127] | < 10 µM
63 | O=C(O)c1ccc(Cl)c(N2C(=O)C(=Cc3ccc(-c4cccc([N+](=O)[O-])c4)o3)SC2=S)c1 [Compound A128] | < 10 µM
64 | O=C(O)c1cccc(N2C(=O)C(=Cc3ccc(-c4ccccc4[N+](=O)[O-])o3)SC2=S)c1 [Compound A129] | > 41 µM
65 | O=C(O)c1cccc(N2C(=O)C(=Cc3ccc(-c4ccc([N+](=O)[O-])cc4)o3)SC2=S)c1 [Compound A130] | 11 to 40 µM
66 | O=C(O)c1cccc(N2C(=O)C(=Cc3ccc(-c4ccc(Cl)cc4[N+](=O)[O-])o3)SC2=S)c1 [Compound A131] | 11 to 40 µM
67 | O=C(O)c1cccc(N2C(=O)C(=Cc3ccc(-c4ccccc4Br)o3)SC2=S)c1 [Compound A132] | 11 to 40 µM
